Test results taken from US11046690B2, “Pyridazinones and methods of use thereof” (Goldfinch Bio, Inc., priority 2018, dated 2021).

Biological target: T1, TRPC4 (Homo sapiens, UniProt Q9UBN4)
T1 construct: expressed in transfected cells
T1 sequence (Q9UBN4 1-982 isoform Q9UBN4-5): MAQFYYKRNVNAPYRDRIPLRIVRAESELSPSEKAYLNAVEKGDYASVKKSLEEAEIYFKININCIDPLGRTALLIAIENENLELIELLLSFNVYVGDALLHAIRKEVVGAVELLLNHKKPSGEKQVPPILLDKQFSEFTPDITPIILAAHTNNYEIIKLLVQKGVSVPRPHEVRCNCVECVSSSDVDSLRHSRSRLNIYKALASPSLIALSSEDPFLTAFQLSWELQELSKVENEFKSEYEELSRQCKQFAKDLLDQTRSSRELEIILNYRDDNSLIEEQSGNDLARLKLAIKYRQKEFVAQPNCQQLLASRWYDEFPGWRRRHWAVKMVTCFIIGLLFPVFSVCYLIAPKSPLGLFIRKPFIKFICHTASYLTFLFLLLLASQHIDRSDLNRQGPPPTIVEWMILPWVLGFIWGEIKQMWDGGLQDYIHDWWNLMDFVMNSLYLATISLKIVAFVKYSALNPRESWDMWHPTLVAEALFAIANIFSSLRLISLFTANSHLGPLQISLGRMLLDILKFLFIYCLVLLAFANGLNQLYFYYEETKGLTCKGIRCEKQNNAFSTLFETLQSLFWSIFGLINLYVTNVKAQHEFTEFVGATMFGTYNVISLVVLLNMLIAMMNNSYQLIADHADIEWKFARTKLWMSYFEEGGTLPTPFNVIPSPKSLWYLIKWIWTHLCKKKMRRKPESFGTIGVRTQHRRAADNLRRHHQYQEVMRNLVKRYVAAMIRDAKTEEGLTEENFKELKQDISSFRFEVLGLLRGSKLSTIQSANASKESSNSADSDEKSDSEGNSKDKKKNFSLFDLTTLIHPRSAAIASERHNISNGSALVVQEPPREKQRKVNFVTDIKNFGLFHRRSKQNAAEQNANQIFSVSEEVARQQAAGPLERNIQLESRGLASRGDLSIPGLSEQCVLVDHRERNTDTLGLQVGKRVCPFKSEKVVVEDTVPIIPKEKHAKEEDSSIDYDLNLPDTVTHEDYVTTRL
Test: TRPC4 activity assay (FLIPR calcium fluorescence, Englerin A stimulation)
Format: cell-based
Details: HEK-TREx hTRPC4 cells, 100 nM Englerin A stimulation; read-out: TRPC4 (IC50 class)
Protocol: ICLN-1694 cells (HEK-TREx hTRPC4) expressing TRPC4 were generated as follows. Commercially available HekTrex-293 cells were seeded at 0.7×10^6 cells/well in a 1×6-well plate 24 hrs prior to transfection using 2 mL cell growth media containing no antibiotics (1× DMEM/high glucose (Hyclone #SH30022.02); 10%0/fetal bovine serum (Sigma) 2 mM sodium pyruvate, 10 mM HEPES). […] On day 2, 2 μg of plasmid DNA plus 6 μl of Xtreme-GENE HP reagent in Optimem (200 μl total volume) was prepared and incubated for 15 min at room temperature. This plasmid solution was then gently overlayed dropwise onto each well and the plate was gently swirled to mix complex with the media for approximately 30 seconds. Transfected cells were incubated at 37° C. in a 10% C02 incubator for 24 hrs. The transfected cells were harvested and transferred into 2×150 mm dishes containing cell growth media with no antibiotics at 37° C.
The next day selection was initiated to generate a stable pool by adding cell growth media containing 150 μg/mL Hygromycin and 5 μg/mL Blasticidin and cells were allowed to grow. Media with the selection agent was changed every 1-2 days as needed to remove dead cells. After 7 days, the hygromycin concentration was reduced to 75 μg/mL and cells growth was allowed to continue.
Single clones were selected as follows. The stable pool was diluted to 10 cells/mL and seeded (100 μl/well) into 24×96 well plates (˜1 cell/well) and allowed to grow for 7 days in cell growth media. Fresh media (100 μl) was added and the cells allowed to grow for another 1-2 weeks and then stored frozen or used immediately.
10-point dose response curves were generated using the Echo-550 acoustic dispenser. Compound source plates were made by serially diluting compound stocks to create 10 mM, 1 mM, and 0.1 mM solutions in DMSO into Echo-certified LDV plates. The Echo then serially spotted 100% DMSO stock solutions into source dose response plates to generate a 4-fold dilution scheme. 100% DMSO was added to the spotted dose response plates to bring the final volume to 5 μl. […] of the dose response stock plate was then spotted into pre-incubation and stimulation assay plates. 50 μl of pre-incubation buffer and 100 μl of stimulation buffer was then added to the plates resulting in a final assay test concentration range of 30 μM to 0.0001 μM with a final DMSO concentration of 0.3%.
ICLN-1694 cells (HEK-TREx hTRPC4) were plated onto 384 well, black pdl-coated microplates and maintained in cell growth media supplemented with 1 μg/mL tetracycline the day prior to use for experiments. TRPC4 expression was induced by the application of 1 μg/mL tetracycline at the time of plating. […] Cells were incubated at room temperature, protected from light, for 60-90 minutes. After the incubation period, the dye was removed and replaced with 10 μl of EBSS. Cell, pre-incubation and stimulation plates were loaded onto the FLIPR-II and the assay was initiated. The FLIPR measured a 10 second baseline and then added 10 μl of 2X compounds (or controls). Changes in fluorescence were monitored for an additional 5 minutes. After a 5 minute pre-incubation, 20 μl of 2X Englerin A (with 1X compound or controls) was added to the cell plate. The final Englerin A stimulation concentration in the assay was 100 nM. After the Englerin A addition, changes in fluorescence were monitored for an additional 5 minutes.
Compound modulation of TRPC4 calcium response was determined as follows. After the Englerin A, fluorescence was monitored for a 5-minute period. The maximum relative fluorescence response (minus the control response of 1 μM of an internal control compound known to maximally block TRPC4 calcium response, the “REF INHIB” in the formula below) was captured and exported from the FLIPR.
Compound effect is calculated as % inhibition using the following formula:
[formula] wherein “RFU” is the relative fluorescent units.

IC50	Structure (SMILES)
< 50 nM	O=c1[nH]ncc(N2CCc3c(ncnc3Oc3ccccc3Cl)C2)c1Cl [Compound 101]
< 50 nM	Nc1nc2c(c(Oc3ccccc3C(F)(F)F)n1)CCN(c1cn[nH]c(=O)c1Cl)C2 [Compound 102]
< 50 nM	O=c1[nH]ncc(N2CCc3c(ncnc3Oc3ccccc3C(F)F)C2)c1Cl [Compound 103, 4-Chloro-5-[4-[2-(difluoromethyl)phenoxy]-5H,6H,7H,8H-pyrido[3,4-d]pyrimidin-7-yl]-2,3-dihydropyridazin-3-one]
< 50 nM	O=c1[nH]ncc(N2CCc3c(ncnc3Oc3ccc(F)cc3C(F)F)C2)c1Cl [Compound 105]
50 to 500 nM	O=c1[nH]ncc(N2CCc3c(ncnc3Oc3cc(F)ccc3C(F)(F)F)C2)c1Cl [Compound 106]
50 to 500 nM	O=c1[nH]ncc(N2CCc3c(ncnc3Oc3cnccc3C(F)(F)F)C2)c1Cl [Compound 107]
500 to 1000 nM	N#Cc1cccc(Oc2ncnc3c2CCN(c2cn[nH]c(=O)c2Cl)C3)c1Cl [Compound 108, 2-Chloro-3-[[7-(5-chloro-6-oxo-1,6-dihydropyridazin-4-yl)-5H,6H,7H,8H-pyrido[3,4-d]pyrimidin-4-yl]oxy]benzonitrile]
50 to 500 nM	CCc1c(F)cccc1Oc1ncnc2c1CCN(c1cn[nH]c(=O)c1Cl)C2 [Compound 109, 4-Chloro-5-[4-(2-ethyl-3-fluorophenoxy)-5H,6H,7H,8H-pyrido[3,4-d]pyrimidin-7-yl]-2,3-dihydropyridazin-3-one]
< 50 nM	COc1nc2c(c(Oc3ccccc3C(F)(F)F)n1)CCN(c1cn[nH]c(=O)c1Cl)C2 [Compound 110, 4-Chloro-5-[2-methoxy-4-[2-(trifluoromethyl)phenoxy]-5H,6H,7H,8H-pyrido[3,4-d]pyrimidin-7-yl]-2,3-dihydropyridazin-3-one]
50 to 500 nM	Nc1nc2c(c(Oc3ccc(F)cc3Cl)n1)CCN(c1cn[nH]c(=O)c1Cl)C2 [Compound 112, 5-[2-amino-4-(2-chloro-4-fluorophenoxy)-5H,6H,7H,8H-pyrido[3,4-d]pyrimidin-7-yl]-4-chloro-2,3-dihydropyridazin-3-one]
50 to 500 nM	Nc1nc2c(c(Oc3ccccc3Cl)n1)CCN(c1cn[nH]c(=O)c1Cl)C2 [Compound 113]
< 50 nM	O=c1[nH]ncc(N2CCc3c(nc(CO)nc3Oc3ccc(F)cc3Cl)C2)c1Cl [Compound 114]
50 to 500 nM	O=c1[nH]ncc(N2CCc3c(nc(NCCO)nc3Oc3ccccc3C(F)(F)F)C2)c1Cl [Compound 115, 4-chloro-5-[2-[(2-hydroxyethyl)amino]-4-[2-(trifluoromethyl)phenoxy]-5H,6H,7H,8H-pyrido[3,4-d]pyrimidin-7-yl]-2,3-dihydropyridazin-3-one]
< 50 nM	Nc1nc2c(c(Oc3ccc(F)cc3C(F)(F)F)n1)CCN(c1cn[nH]c(=O)c1Cl)C2 [Compound 116]
50 to 500 nM	C[C@@H]1c2ncnc(Oc3ccc(F)cc3Cl)c2CCN1c1cn[nH]c(=O)c1Cl [Compound 118, 4-chloro-5-[(8R)-4-(2-chloro-4-fluorophenoxy)-8-methyl-5H,6H,7H,8H-pyrido[3,4-d]pyrimidin-7-yl]-2,3-dihydropyridazin-3-one]
< 50 nM	C[C@@H](O)c1nc2c(c(Oc3ccc(F)cc3Cl)n1)CCN(c1cn[nH]c(=O)c1Cl)C2 [Compound 119]
< 50 nM	O=c1[nH]ncc(N2CCc3c(ccnc3Oc3ccc(F)cc3C(F)(F)F)C2)c1Cl [Compound 120, 4-chloro-5-[5-[4-fluoro-2-(trifluoromethyl)phenoxy]-1,2,3,4-tetrahydro-2,6-naphthyridin-2-yl]-2,3-dihydropyridazin-3-one]
